Assay [1] addresses T1, SlyA (Salmonella enterica, UniProt P40676). Description: ITC with purified SlyA; supported by NMR. The assay is classed as binding.
The target in assay [2] is T1, SlyA. Description: ITC with purified SlyA at […]°C; supported by 1H, […]-HSQC NMR. The assay is classed as binding.

The source of these data is article PMC12506092, “The MarR family transcription factor SlyA senses iron and respiratory status in enteric bacteria” (mBio, 2025).

Molecules are shown by their SMILES.

T1 sequence (P40676 whole entry): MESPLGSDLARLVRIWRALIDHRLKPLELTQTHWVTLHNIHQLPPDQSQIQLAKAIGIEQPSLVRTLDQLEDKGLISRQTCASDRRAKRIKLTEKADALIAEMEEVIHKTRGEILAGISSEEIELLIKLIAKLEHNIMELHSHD

`O=C(O)c1ccccc1O` [salicylate] had a Kd at SlyA [1] of 36 µM.
`O=C(O)c1ccc(O)cc1` [4-hydroxybenzoate] came in with a Kd on SlyA [2] of approximately 100 µM.
In the case of `O=C(O)c1cccc(O)c1O` [2,3-dihydroxybenzoate], on SlyA [2], the Kd is approximately 57 µM.

By Kd is commonly meant the free concentration of one partner at which half of the binding sites on the other are occupied at equilibrium, for simple one-to-one binding. Low readings indicate higher affinity, high ones lower affinity.
